Source: patent publication EP4230621A1, “SUBSTITUTED N-BENZOIC ACID URACILS, THEIR SALTS AND USE OF SAID COMPOUNDS AS HERBICIDAL AGENTS” (Bayer AG, priority 2022, dated 2023)

What was measured:
Assay type in all cases: in vivo
Abutilon theophrasti = test: Post-emergence herbicidal action against ABUTH (greenhouse pot test); details: visual rating after ca. 3 weeks vs untreated controls (100% = plants dead, 0% = like controls)
Text: (§1) Die folgenden Abkürzungen werden für die in den folgenden Tabellen aufgeführten Kultur- und Schadpflanzen verwendet: ABUTH: Abutilon theophrasti ALOMY: Alopecurus myosuroides AMARE: Amaranthus retroflexus BRSNS: Brassica napus DIGSA: Digitaria sanguinalis ECHCG: Echinochloa crus-galli GLXMA: Glycine max KCHSC: Kochia scoparia LOLRI: Lolium rigidum MATIN: Matricaria inodora ORYZA: Oryza sativa PHPBU: Pharbitis purpurea POLCO: Polygonum convolvulus SETVI: Setaria viridis VERPE: Veronica persica VIOTR: Viola tricolor TRZAS: Triticum aestivum ZEAMX: Zea mays
(§2) Samen von mono- bzw. dikotylen Unkrautpflanzen wurden in Kunststoff- oder Holzfasertöpfen in sandigem Lehmboden ausgelegt, mit Erde abgedeckt und im Gewächshaus unter kontrollierten Wachstumsbedingungen angezogen. 2 bis 3 Wochen nach der Aussaat wurden die Versuchspflanzen im Einblattstadium behandelt. Die in Form von benetzbaren Pulvern (WP) oder als Emulsionskonzentrate (EC) formulierten erfindungsgemäßen Verbindungen wurden dann als wässrige Suspension bzw. Emulsion unter Zusatz von 0,5% Additiv mit einer Wasseraufwandmenge von umgerechnet 600 1/ha auf die grünen Pflanzenteile gesprüht. Nach ca. 3 Wochen Standzeit der Versuchspflanzen im Gewächshaus, unter optimalen Wachstumsbedingungen, wurde die Wirkung der Präparate visuell im Vergleich zu unbehandelten Kontrollen bonitiert. Beispielsweise bedeutet 100% Wirkung = Pflanzen sind abgestorben, 0% Wirkung = wie Kontrollpflanzen.
(§3) In den nachstehenden Tabellen A1 bis A11 sind die Wirkungen ausgewählter Verbindungen der allgemeinen Formel (I) gemäß der Tabelle 1 auf verschiedene Schadpflanzen und einer Aufwandmenge entsprechend 80 g/ha und niedriger, die gemäß zuvor genannter Versuchsvorschrift erhalten wurden, dargestellt. Tabelle A1a: Nachauflaufwirkung bei 5 g/ha gegen ABUTH in %

Alopecurus myosuroides = test: Post-emergence herbicidal action against ALOMY (greenhouse pot test); details: visual rating after ca. 3 weeks vs untreated controls (100% = plants dead, 0% = like controls)
Text: as §1, §2, §3

Amaranthus retroflexus = test: Post-emergence herbicidal action against AMARE (greenhouse pot test); details: visual rating after ca. 3 weeks vs untreated controls (100% = plants dead, 0% = like controls)
Text: as §1, §2, §3

Digitaria sanguinalis = test: Post-emergence herbicidal action against DIGSA (greenhouse pot test); details: visual rating after ca. 3 weeks vs untreated controls (100% = plants dead, 0% = like controls)
Text: as §1, §2, §3

Lolium rigidum = test: Post-emergence herbicidal action against LOLRI (greenhouse pot test); details: visual rating after ca. 3 weeks vs untreated controls (100% = plants dead, 0% = like controls)
Text: as §1, §2, §3

Matricaria inodora = test: Post-emergence herbicidal action against MATIN (greenhouse pot test); details: for Nachauflaufwirkung gegen MATIN: visual rating after ca. 3 weeks vs untreated controls (100% = plants dead, 0% = like controls); for Nachauflaufwirkung gegen MATIN in %: 80 g/ha
Text: as §1, §2, §3

Pharbitis purpurea = test: Post-emergence herbicidal action against PHBPU (greenhouse pot test)
Text: as §1, §2, §3

Polygonum convolvulus = test: Post-emergence herbicidal action against POLCO (greenhouse pot test)
Text: as §1, §2, §3

Setaria viridis = test: Post-emergence herbicidal action against SETVI (greenhouse pot test)
Text: as §1, §2, §3

Veronica persica = test: Post-emergence herbicidal action against VERPE (greenhouse pot test)
Text: as §1, §2, §3

Viola tricolor = test: Post-emergence herbicidal action against VIOTR (greenhouse pot test)
Text: as §1, §2, §3

Zea mays = test: Post-emergence action on crop plants, ZEAMX (greenhouse pot test); details: 5 g/ha, crop plant
Text: as §1
as §2, with “Kulturpflanzen” for “Unkrautpflanzen”
as §3, with “B1” for “A1”, “B3” for “A11”, “Kulturpflanzen” for “Schadpflanzen”, “20” for “80”, “B1a:” for “A1a:”, “ZEAMX” for “ABUTH”

Triticum aestivum = test: Post-emergence action on crop plants, TRZAS (greenhouse pot test); details: crop plant
Text: as §1
as §2, with “Kulturpflanzen” for “Unkrautpflanzen”
as §3, with “B1” for “A1”, “B3” for “A11”, “Kulturpflanzen” for “Schadpflanzen”, “20” for “80”, “B1a:” for “A1a:”, “ZEAMX” for “ABUTH”

Oryza sativa = test: Post-emergence action on crop plants, ORYZA (greenhouse pot test); details: 5 g/ha
Text: as §1
as §2, with “Kulturpflanzen” for “Unkrautpflanzen”
as §3, with “B1” for “A1”, “B3” for “A11”, “Kulturpflanzen” for “Schadpflanzen”, “20” for “80”, “B1a:” for “A1a:”, “ZEAMX” for “ABUTH”

Row | SMILES | Nachauflaufwirkung gegen ABUTH (Abutilon theophrasti; 5 g/ha) [%] | Nachauflaufwirkung gegen ABUTH (Abutilon theophrasti; 20 g/ha) [%] | Nachauflaufwirkung gegen ABUTH (Abutilon theophrasti; 80 g/ha) [%] | Nachauflaufwirkung gegen ALOMY (Alopecurus myosuroides; 20 g/ha) [%] | Nachauflaufwirkung gegen ALOMY (Alopecurus myosuroides; 80 g/ha) [%] | Nachauflaufwirkung gegen AMARE (Amaranthus retroflexus; 5 g/ha) [%] | Nachauflaufwirkung gegen AMARE (Amaranthus retroflexus; 20 g/ha) [%] | Nachauflaufwirkung gegen AMARE (Amaranthus retroflexus; 80 g/ha) [%] | Nachauflaufwirkung gegen DIGSA (Digitaria sanguinalis; 5 g/ha) [%] | Nachauflaufwirkung gegen DIGSA (Digitaria sanguinalis; 20 g/ha) [%] | Nachauflaufwirkung gegen DIGSA (Digitaria sanguinalis; 80 g/ha) [%] | Nachauflaufwirkung gegen LOLRI (Lolium rigidum; 80 g/ha) [%] | Nachauflaufwirkung gegen MATIN (Matricaria inodora; 5 g/ha) [%] | Nachauflaufwirkung gegen MATIN (Matricaria inodora; 20 g/ha) [%] | Nachauflaufwirkung gegen MATIN in % (Matricaria inodora) [%] | Nachauflaufwirkung gegen PHBPU in % (Pharbitis purpurea; 5 g/ha) [%] | Nachauflaufwirkung gegen PHBPU in % (Pharbitis purpurea; 20 g/ha) [%] | Nachauflaufwirkung gegen PHBPU in % (Pharbitis purpurea; 80 g/ha) [%] | Nachauflaufwirkung gegen POLCO in % (Polygonum convolvulus; 5 g/ha) [%] | Nachauflaufwirkung gegen POLCO in % (Polygonum convolvulus; 20 g/ha) [%] | further results
1 | COCCOC(=O)C(C)(C)OC(=O)c1cc(-n2c(=O)cc(C(F)(F)F)n(C)c2=O)c(F)cc1Cl [I.1-1] | 100 | 100 | 100 | 100 | 100 | 100 | 100 | 100 | 100 | 100 | 100 | 100 | 100 | 100 | 100 | 80 | 100 | 100 | 100 | 100 | Nachauflaufwirkung gegen LOLRI (Lolium rigidum; 20 g/ha): 100%; Nachauflaufwirkung gegen POLCO in % (Polygonum convolvulus; 80 g/ha): 100%; Nachauflaufwirkung gegen SETVI in % (Setaria viridis; 5 g/ha): 100%; Nachauflaufwirkung gegen SETVI in % (Setaria viridis; 20 g/ha): 100%; Nachauflaufwirkung gegen SETVI in % (Setaria viridis; 80 g/ha): 100%; Nachauflaufwirkung gegen VERPE in % (Veronica persica; 5 g/ha): 100%; Nachauflaufwirkung gegen VERPE in % (Veronica persica; 20 g/ha): 100%; Nachauflaufwirkung gegen VERPE in % (Veronica persica; 80 g/ha): 100%; Nachauflaufwirkung gegen VIOTR in % (Viola tricolor; 5 g/ha): 100%; Nachauflaufwirkung gegen VIOTR in % (Viola tricolor; 20 g/ha): 100%; Nachauflaufwirkung gegen VIOTR in % (Viola tricolor; 80 g/ha): 100%; Nachauflaufwirkung gegen ZEAMX in % (Zea mays): 10%; Nachauflaufwirkung gegen TRZAS in % (Triticum aestivum; 5 g/ha): 10%; Nachauflaufwirkung gegen ORYZA in % (Oryza sativa): 20%
2 | CCOCCOC(=O)C(C)(C)OC(=O)c1cc(-n2c(=O)cc(C(F)(F)F)n(C)c2=O)c(F)cc1Cl [I.1-2] | 100 | 100 | 100 | 90 | 100 | 100 | 100 | 100 | 100 | 100 | 100 | 100 | 100 | 100 | 100 | 100 | 100 | 100 | 100 | 100 | Nachauflaufwirkung gegen POLCO in % (Polygonum convolvulus; 80 g/ha): 100%; Nachauflaufwirkung gegen SETVI in % (Setaria viridis; 5 g/ha): 100%; Nachauflaufwirkung gegen SETVI in % (Setaria viridis; 20 g/ha): 100%; Nachauflaufwirkung gegen SETVI in % (Setaria viridis; 80 g/ha): 100%; Nachauflaufwirkung gegen VERPE in % (Veronica persica; 5 g/ha): 100%; Nachauflaufwirkung gegen VERPE in % (Veronica persica; 20 g/ha): 100%; Nachauflaufwirkung gegen VERPE in % (Veronica persica; 80 g/ha): 100%; Nachauflaufwirkung gegen VIOTR in % (Viola tricolor; 5 g/ha): 100%; Nachauflaufwirkung gegen VIOTR in % (Viola tricolor; 20 g/ha): 100%; Nachauflaufwirkung gegen VIOTR in % (Viola tricolor; 80 g/ha): 100%; Nachauflaufwirkung gegen ZEAMX in % (Zea mays): 20%; Nachauflaufwirkung gegen TRZAS in % (Triticum aestivum; 5 g/ha): 10%; Nachauflaufwirkung gegen TRZAS in % (Triticum aestivum; 20 g/ha): 20%; Nachauflaufwirkung gegen ORYZA in % (Oryza sativa): 0%
